Data published in the supplement of paper PMC10307832.

What was measured:
Assay in all cases: relative viability (nuclei count vs DMSO), 5 days (fraction); higher = more cells survive
A-427 = test system: A-427
In short: (§1)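 Medians of duplicate plates are given as relative viability. That measure is the nuclei count in treated wells divided by the count in vehicle wells. Counts were taken on 4× images of lung cancer cell lines in 1536-well plates, 5 days after pin-tool dosing the day after seeding with one drug alone or a fixed anchor-drug dose plus five library-drug doses (not always all listed) in √10 steps.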

CAL-12T = test system: CAL-12T
In short: as §1

COR-L 105 = test system: COR-L 105
In short: as §1

EMC-BAC-2 = test system: EMC-BAC-2
In short: as §1

HARA = test system: HARA
In short: as §1

HCC-366 = test system: HCC-366
In short: as §1

HCC-827 = test system: HCC-827
In short: as §1

HOP-62 = test system: HOP-62
In short: as §1

LCLC-103H = test system: LCLC-103H
In short: as §1

NCI-H1355 = test system: NCI-H1355
In short: as §1

NCI-H1395 = test system: NCI-H1395
In short: as §1

NCI-H1437 = test system: NCI-H1437
In short: as §1

NCI-H1755 = test system: NCI-H1755
In short: as §1

NCI-H1792 = test system: NCI-H1792
In short: as §1

NCI-H1915 = test system: NCI-H1915
In short: as §1

NCI-H1975 = test system: NCI-H1975
In short: as §1

NCI-H2009 = test system: NCI-H2009
In short: as §1

NCI-H2228 = test system: NCI-H2228
In short: as §1

NCI-H23 = test system: NCI-H23
In short: as §1

NCI-H460 = test system: NCI-H460
In short: as §1

NCI-H522 = test system: NCI-H522
In short: as §1

NCI-H727 = test system: NCI-H727
In short: as §1

SK-LU-1 = test system: SK-LU-1
In short: as §1

SW 1573 = test system: SW 1573
In short: as §1

## CC(C)Oc1cc(Nc2nc(N[C@@H](C)c3ccc(F)cn3)ncc2Cl)n[nH]1 [AZ23] + O=C(c1cc(Cc2n[nH]c(=O)c3ccccc23)ccc1F)N1CCN(C(=O)C2CC2)CC1 [Olaparib] (partner 8 µM)
A-427; first compound 0.01 µM
  relative viability: 0.82
A-427; first compound 0.03162 µM
  relative viability: 0.885
A-427; first compound 0.3162 µM
  relative viability: 0.856
CAL-12T; first compound 0.01 µM
  relative viability: 0.752
CAL-12T; first compound 0.03162 µM
  relative viability: 0.747
CAL-12T; first compound 0.3162 µM
  relative viability: 0.745
COR-L 105; first compound 0.01 µM
  relative viability: 0.609
COR-L 105; first compound 0.03162 µM
  relative viability: 0.819
COR-L 105; first compound 0.3162 µM
  relative viability: 0.665
EMC-BAC-2; first compound 0.01 µM
  relative viability: 0.545
EMC-BAC-2; first compound 0.03162 µM
  relative viability: 0.514
EMC-BAC-2; first compound 0.3162 µM
  relative viability: 0.503
HARA; first compound 0.01 µM
  relative viability: 0.292
HARA; first compound 0.03162 µM
  relative viability: 0.575
HARA; first compound 0.3162 µM
  relative viability: 0.969
HCC-366; first compound 0.01 µM
  relative viability: 0.19
HCC-366; first compound 0.03162 µM
  relative viability: 0.451
HCC-366; first compound 0.3162 µM
  relative viability: 0.511
HCC-827; first compound 0.01 µM
  relative viability: 0.665
HCC-827; first compound 0.03162 µM
  relative viability: 0.764
HCC-827; first compound 0.3162 µM
  relative viability: 0.712
HOP-62; first compound 0.03162 µM
  relative viability: 0.477
HOP-62; first compound 0.3162 µM
  relative viability: 0.379
LCLC-103H; first compound 0.01 µM
  relative viability: 0.981
LCLC-103H; first compound 0.03162 µM
  relative viability: 0.86
LCLC-103H; first compound 0.3162 µM
  relative viability: 0.864
NCI-H1355; first compound 0.01 µM
  relative viability: 0.808
NCI-H1355; first compound 0.03162 µM
  relative viability: 0.771
NCI-H1355; first compound 0.3162 µM
  relative viability: 0.699
NCI-H1395; first compound 0.03162 µM
  relative viability: 0.424
NCI-H1395; first compound 0.3162 µM
  relative viability: 0.452
NCI-H1437; first compound 0.01 µM
  relative viability: 0.714
NCI-H1437; first compound 0.03162 µM
  relative viability: 0.618
NCI-H1437; first compound 0.3162 µM
  relative viability: 0.648
NCI-H1755; first compound 0.01 µM
  relative viability: 0.962
NCI-H1755; first compound 0.03162 µM
  relative viability: 0.955
NCI-H1755; first compound 0.3162 µM
  relative viability: 1
NCI-H1792; first compound 0.01 µM
  relative viability: 0.27
NCI-H1792; first compound 0.03162 µM
  relative viability: 0.594
NCI-H1792; first compound 0.3162 µM
  relative viability: 0.373
NCI-H1915; first compound 0.01 µM
  relative viability: 0.259
NCI-H1915; first compound 0.03162 µM
  relative viability: 0.253
NCI-H1915; first compound 0.3162 µM
  relative viability: 0.275
NCI-H1975; first compound 0.01 µM
  relative viability: 0.88
NCI-H1975; first compound 0.03162 µM
  relative viability: 0.904
NCI-H1975; first compound 0.3162 µM
  relative viability: 0.822
NCI-H2009; first compound 0.01 µM
  relative viability: 0.814
NCI-H2009; first compound 0.03162 µM
  relative viability: 0.769
NCI-H2009; first compound 0.3162 µM
  relative viability: 0.79
NCI-H2228; first compound 0.01 µM
  relative viability: 0.53
NCI-H2228; first compound 0.03162 µM
  relative viability: 0.775
NCI-H2228; first compound 0.3162 µM
  relative viability: 0.589
NCI-H23; first compound 0.03162 µM
  relative viability: 0.263
NCI-H23; first compound 0.3162 µM
  relative viability: 0.394
NCI-H460; first compound 0.01 µM
  relative viability: 0.24
NCI-H460; first compound 0.03162 µM
  relative viability: 0.518
NCI-H460; first compound 0.3162 µM
  relative viability: 0.481
NCI-H522; first compound 0.01 µM
  relative viability: 0.667
NCI-H522; first compound 0.03162 µM
  relative viability: 0.598
NCI-H522; first compound 0.3162 µM
  relative viability: 0.641
NCI-H727; first compound 0.01 µM
  relative viability: 0.751
NCI-H727; first compound 0.03162 µM
  relative viability: 0.678
NCI-H727; first compound 0.3162 µM
  relative viability: 0.689
SK-LU-1; first compound 0.03162 µM
  relative viability: 0.564
SK-LU-1; first compound 0.3162 µM
  relative viability: 0.47
SW 1573; first compound 0.01 µM
  relative viability: 0.649
SW 1573; first compound 0.03162 µM
  relative viability: 0.613
SW 1573; first compound 0.3162 µM
  relative viability: 0.508
